From patent US10874670B2, “Substituted fused heteroaromatic compounds as kinase inhibitors and the use thereof” (IMPACT THERAPEUTICS, INC., priority 2017, dated 2020)
Where two headings read alike, the source gives them in different places.

Legend:
ATM enzyme (human) = ATM enzyme (human) (Homo sapiens, UniProt Q13315); experiment: ATM kinase assay (HTRF, GST-cMyc-p53 substrate); type: biochemical; details: for inhibition at 1 µM: C 1 μm (final concentration of compound); for inhibition at 0.01 µM: C 0.01 μm (final concentration of compound); for inhibition at 0.1 µM: C 0.1 μm (final concentration of compound)
Outline: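 Reaction with GST-cMyc-p53 substrate started with Mg/ATP, run 30 minutes at room temperature, then stopped with EDTA. Phospho-p53 (Ser15) detected by HTRF with Eu-labelled anti-phospho antibody and d2 anti-GST, signal as 10000×(Em665/Em620). Duplicates; IC50 from a curve fit with slope factor.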

[1] = tested on: human colon cancer cell SW620; experiment: MTT assay, growth of SW620 cells, compounds combined with CPT-11; type: cell-based; details: for IC50: Homo sapiens, SW-620, 120 h, combined with CPT-11 (205 nM medium), 5 days, MTT
Outline: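 SW620 cells in RPMI 1640/10% FBS were exposed to 8-point compound dilutions (top 10 or 1 μM, 1% DMSO final) plus CPT-11 (205 nM in added medium) for 5 days at 37 °C. Viability by MTT (0.5 mg/mL, 4 h) absorbance; IC50 from sigmoidal fit.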

[2] = tested on: human breast cancer cell MDA-MB-468; experiment: MTT assay, growth of MDA-MB-468 cells; type: cell-based; details: for IC50: Homo sapiens, MDA-MB-468, 168 h, 7 days, MTT
Procedure: Inhibitory Effects of N,N-dimethyl-3-(4-(1-(tetrahydro-2H-pyran-4-yl)-[1,2,4]triazolo[4,3-a]quinoxalin-8-yl)phenoxy)propan-1-amine and its Analogues on the Growth of Human Breast Cancer Cell MDA-MB-468 were Determined by MTT Assay
MDA-MB-468 cells were digested by trypsinase, centrifuged at 800 rpm for 5 minutes, the supernatant was discarded, resuspended with fresh medium (RPMI 1640 medium+10% FBS) and counted. The cells were seeded into 96-well cell culture plate with appropriate cell density and incubated overnight in a 37° C. 5% CO2 incubator. The stock solutions of the tested compound and the reference compound AZD0156 were serially diluted to 8 concentrations by DMSO at the ratios of 1:3 and 1:10, respectively: the first concentration was 100 μM or 1 μM, and the last concentration was negative control of DMSO (0 μM, the final concentration of DMSO was 1%). 5 μL of each concentration was added to 120 μL of medium (25 times diluted) and mixed by shaking. The overnight cells were taken and the culture medium was removed, 195 μL of fresh medium was added to each well, and 5 μL of diluted medium containing the corresponding concentration of the tested sample was added respectively, and the culture plate was then placed in the 5% CO2 cell culture incubator at 37° C. for 7 days (On the fourth day, the medium containing drugs was removed and fresh medium containing drugs was added for continuous cultivation). After removing the original solution, 100 μL of fresh serum-free DMEM medium containing MTT (0.5 mg/mL) was added to each well, the culture was continued. After 4 hours, the original solution was removed, 100 μL of DMSO was added into each well, the 96-well plates were shaken away from light for 10 minutes and placed in a multi-function reader to read the absorbance at the wavelength of 552/630/690 nm. GraphPad Prism 6.0 was used to analyze the data. The inhibitory activity of compounds on cell proliferation was plotted based on cell viability and compound concentration. The IC50 value was fitted by a sigmoidal dose response curve equation Y=100/(1+10^(Log C−Log IC50)), where C was the concentration of compound.
Table 4 summarizes the inhibitory effects of compounds on the growth of human breast cancer cell MDA-MB-468 (IC50).

[3] = 0.5 h, read-out: Inh (%) of ATM kinase
[4] = 0.5 h, C 0.001 μm (final concentration of compound), read-out: Inh (%) of ATM kinase

ATM enzyme (human), sequence (Q13315 whole entry): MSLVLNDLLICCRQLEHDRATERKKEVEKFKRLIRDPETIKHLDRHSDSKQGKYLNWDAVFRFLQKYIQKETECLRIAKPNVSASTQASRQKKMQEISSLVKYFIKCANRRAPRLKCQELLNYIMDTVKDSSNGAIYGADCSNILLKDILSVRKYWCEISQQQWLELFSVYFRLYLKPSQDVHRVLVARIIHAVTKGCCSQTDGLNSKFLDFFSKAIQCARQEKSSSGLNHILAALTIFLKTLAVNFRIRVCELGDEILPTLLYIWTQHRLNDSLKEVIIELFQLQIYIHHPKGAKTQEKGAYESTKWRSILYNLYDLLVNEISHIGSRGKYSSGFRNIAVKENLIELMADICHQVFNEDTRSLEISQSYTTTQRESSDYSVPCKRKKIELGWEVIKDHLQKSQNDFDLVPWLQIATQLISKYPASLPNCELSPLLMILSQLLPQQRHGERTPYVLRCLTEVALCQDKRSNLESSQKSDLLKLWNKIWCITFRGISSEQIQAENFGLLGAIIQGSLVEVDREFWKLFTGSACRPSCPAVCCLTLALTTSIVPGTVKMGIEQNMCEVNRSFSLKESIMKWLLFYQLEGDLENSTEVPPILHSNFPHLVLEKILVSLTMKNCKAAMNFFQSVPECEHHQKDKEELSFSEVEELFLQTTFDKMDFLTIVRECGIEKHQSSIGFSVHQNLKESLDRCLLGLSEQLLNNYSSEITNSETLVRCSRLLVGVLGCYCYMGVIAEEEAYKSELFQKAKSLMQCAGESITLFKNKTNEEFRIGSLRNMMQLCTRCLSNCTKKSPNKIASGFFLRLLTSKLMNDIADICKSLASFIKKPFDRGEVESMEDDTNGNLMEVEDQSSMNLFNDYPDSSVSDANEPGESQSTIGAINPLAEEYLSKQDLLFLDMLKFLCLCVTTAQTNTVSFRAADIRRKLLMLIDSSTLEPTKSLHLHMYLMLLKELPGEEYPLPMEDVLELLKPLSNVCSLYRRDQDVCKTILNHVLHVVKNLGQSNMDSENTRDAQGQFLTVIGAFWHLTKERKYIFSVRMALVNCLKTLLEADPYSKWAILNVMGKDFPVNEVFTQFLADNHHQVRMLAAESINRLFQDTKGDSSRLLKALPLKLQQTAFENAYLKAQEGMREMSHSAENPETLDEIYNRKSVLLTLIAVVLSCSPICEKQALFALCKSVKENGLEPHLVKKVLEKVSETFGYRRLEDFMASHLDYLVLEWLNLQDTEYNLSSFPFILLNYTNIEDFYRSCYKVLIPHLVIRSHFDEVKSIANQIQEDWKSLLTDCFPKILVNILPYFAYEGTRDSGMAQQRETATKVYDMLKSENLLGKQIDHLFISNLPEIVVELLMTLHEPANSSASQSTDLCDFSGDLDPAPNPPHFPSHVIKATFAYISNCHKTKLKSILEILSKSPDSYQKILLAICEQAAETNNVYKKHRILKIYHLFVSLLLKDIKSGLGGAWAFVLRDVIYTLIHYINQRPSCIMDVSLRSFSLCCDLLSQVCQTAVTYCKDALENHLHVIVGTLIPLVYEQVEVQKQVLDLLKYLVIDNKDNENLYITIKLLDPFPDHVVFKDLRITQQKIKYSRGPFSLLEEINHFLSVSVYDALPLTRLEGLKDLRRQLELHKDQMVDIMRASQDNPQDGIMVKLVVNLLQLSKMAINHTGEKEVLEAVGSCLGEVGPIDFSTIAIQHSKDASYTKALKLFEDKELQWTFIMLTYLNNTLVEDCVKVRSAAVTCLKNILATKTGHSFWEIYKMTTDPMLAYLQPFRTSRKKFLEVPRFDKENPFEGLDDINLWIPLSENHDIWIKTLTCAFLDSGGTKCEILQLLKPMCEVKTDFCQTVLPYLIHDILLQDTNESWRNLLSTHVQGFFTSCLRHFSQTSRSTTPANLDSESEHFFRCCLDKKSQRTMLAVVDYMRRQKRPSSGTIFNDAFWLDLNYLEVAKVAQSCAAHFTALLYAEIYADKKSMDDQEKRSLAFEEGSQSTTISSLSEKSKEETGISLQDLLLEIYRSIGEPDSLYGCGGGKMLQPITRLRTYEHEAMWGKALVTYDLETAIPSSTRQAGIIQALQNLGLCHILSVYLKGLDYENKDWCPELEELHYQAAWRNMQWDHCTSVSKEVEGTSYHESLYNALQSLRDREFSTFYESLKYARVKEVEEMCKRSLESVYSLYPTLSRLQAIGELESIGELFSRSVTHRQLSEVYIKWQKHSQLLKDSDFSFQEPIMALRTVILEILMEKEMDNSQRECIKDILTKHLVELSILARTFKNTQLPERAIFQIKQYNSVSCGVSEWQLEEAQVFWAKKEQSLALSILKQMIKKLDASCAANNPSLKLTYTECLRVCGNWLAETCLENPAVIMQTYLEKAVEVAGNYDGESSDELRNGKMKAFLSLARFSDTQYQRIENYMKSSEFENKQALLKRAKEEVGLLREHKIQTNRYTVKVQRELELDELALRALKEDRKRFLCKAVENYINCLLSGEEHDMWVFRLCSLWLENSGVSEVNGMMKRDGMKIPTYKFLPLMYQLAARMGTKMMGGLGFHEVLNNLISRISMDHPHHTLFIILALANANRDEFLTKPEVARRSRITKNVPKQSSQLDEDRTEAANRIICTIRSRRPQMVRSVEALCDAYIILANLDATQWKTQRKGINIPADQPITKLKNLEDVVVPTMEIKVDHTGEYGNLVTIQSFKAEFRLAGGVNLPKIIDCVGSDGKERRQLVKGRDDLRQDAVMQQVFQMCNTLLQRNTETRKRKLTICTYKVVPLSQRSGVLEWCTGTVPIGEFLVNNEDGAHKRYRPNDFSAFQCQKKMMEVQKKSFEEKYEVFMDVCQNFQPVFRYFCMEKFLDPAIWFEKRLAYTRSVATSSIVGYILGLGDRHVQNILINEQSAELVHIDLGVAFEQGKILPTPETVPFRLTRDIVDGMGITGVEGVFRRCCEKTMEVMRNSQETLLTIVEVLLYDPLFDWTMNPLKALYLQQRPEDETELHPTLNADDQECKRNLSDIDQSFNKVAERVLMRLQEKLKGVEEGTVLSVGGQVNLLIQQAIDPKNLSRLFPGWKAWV

Row | SMILES | inhibition at 1 µM (ATM enzyme (human); [3]) [%] | IC50 [1] [nM] | IC50 [2] [nM] | inhibition at 0.01 µM (ATM enzyme (human); [3]) [%] | inhibition at 0.1 µM (ATM enzyme (human); [3]) [%] | inhibition at 0.001 µM (ATM enzyme (human); [4]) [%] | inhibition at 0.001 µM (ATM enzyme (human); at 1 nM, read-out: inhibitory effect on ATM kinase) [%] | inhibitory effect on the growth of SW620 cells (in words) ([1]; MTT assay, combined with CPT-11) | inhibitory effect on the growth of MDA-MB-468 cells (in words) ([2]; MTT assay)
1 | CN(C)C1CCN(c2ccc(-c3ccc4ncc5nnc(C6CCOCC6)n5c4c3)cc2F)CC1 [Example 44, 1-(2-fluoro-4-(1-(tetrahydro-2H-pyran-4-yl)-[1,2,4]triazolo[4,3-a]quinoxalin-8-yl)phenyl)-N,N-dimethylpiperidin-4-amine] | 100 | 152 | 183 | 67 | 94 | – | – | – | –
2 | Cc1cc(-c2ccc3ncc4nnc(C5CCOCC5)n4c3c2)ccc1N1CCC(N(C)C)CC1 [Example 46, N,N-dimethyl-1-(2-methyl-4-(1-(tetrahydro-2H-pyran-4-yl)-[1,2,4]triazolo[4,3-a]quinoxalin-8-yl)phenyl)piperidin-4-amine] | 100 | 612 | 930 | – | – | – | – | – | –
3 | CN(C)C1CCN(c2ccc(-c3ccc4ncc5nnc(C6CCOCC6)n5c4c3)cc2C(F)(F)F)CC1 [Example 47, N,N-dimethyl-1-(4-(1-(tetrahydro-2H-pyran-4-yl)-[1,2,4]triazolo[4,3-a]quinoxalin-8-yl)-2-(trifluoromethyl)phenyl)piperidin-4-amine] | 100 | 128 | 145 | 72 | 96 | – | – | – | –
4 | CN(C)C1CCN(c2ccc(-c3ccc4ncc5nnc(C6CCOCC6)n5c4c3)c(F)c2)CC1 [Example 48, 1-(3-fluoro-4-(1-(tetrahydro-2H-pyran-4-yl)-[1,2,4]triazolo[4,3-a]quinoxalin-8-yl)phenyl)-N,N-dimethylpiperidin-4-amine] | 100 | 184 | 161 | 62 | 93 | – | – | – | –
5 | CN(C)C1CCN(c2ccc(-c3ccc4ncc5nnc(C6CCOCC6)n5c4c3)c(Cl)c2)CC1 [Example 49, 1-(3-chloro-4-(1-(tetrahydro-2H-pyran-4-yl)-[1,2,4]triazolo[4,3-a]quinoxalin-8-yl)phenyl)-N,N-dimethylpiperidin-4-amine] | 100 | 1030 | 1580 | – | – | – | – | – | –
6 | CN(C)C1CCN(c2ccc(-c3ccc4ncc5nnc(C6CCOCC6)n5c4c3)c(C(F)(F)F)c2)CC1 [Example 51, N,N-dimethyl-1-(4-(1-(tetrahydro-2H-pyran-4-yl)-[1,2,4]triazolo[4,3-a]quinoxalin-8-yl)-3-(trifluoromethyl)phenyl)piperidin-4-amine] | 74 | > 10000 | 3680 | – | – | – | – | – | –
7 | CN(C)CC1CCN(c2ccc(-c3ccc4ncc5nnc(C6CCOCC6)n5c4c3)cc2)CC1 [Example 53, N,N-dimethyl-1-(1-(4-(1-(tetrahydro-2H-pyran-4-yl)-[1,2,4]triazolo[4,3-a]quinoxalin-8-yl)phenyl)piperidin-4-yl)methanamine] | 77 | > 100000 | > 100000 | – | – | – | – | – | –
8 | CN(C)CCC1CCN(c2ccc(-c3ccc4ncc5nnc(C6CCOCC6)n5c4c3)cc2)CC1 [Example 54, N,N-dimethyl-2-(1-(4-(1-(tetrahydro-2H-pyran-4-yl)-[1,2,4]triazolo[4,3-a]quinoxalin-8-yl)phenyl)piperidin-4-yl)ethan-1-amine] | 82 | > 100000 | > 100000 | – | – | – | – | – | –

Continued, in another order:

Row | inhibition at 1 µM (ATM enzyme (human); [3]) [%] | IC50 [1] [nM] | IC50 [2] [nM] | inhibition at 0.01 µM (ATM enzyme (human); [3]) [%] | inhibition at 0.1 µM (ATM enzyme (human); [3]) [%] | inhibition at 0.001 µM (ATM enzyme (human); [4]) [%] | inhibition at 0.001 µM (ATM enzyme (human); at 1 nM, read-out: inhibitory effect on ATM kinase) [%] | SMILES | inhibitory effect on the growth of SW620 cells (in words) ([1]; MTT assay, combined with CPT-11) | inhibitory effect on the growth of MDA-MB-468 cells (in words) ([2]; MTT assay)
9 | 18 | 4250 | 4710 | – | – | – | – | CN(C)CCCOc1ccc(-c2ccc3ncc4cnc(C5CCOCC5)n4c3c2)cc1 [Example 37, N,N-dimethyl-3-(4-(1-(tetrahydro-2H-pyran-4-yl)imidazo[1,5-a]quinoxalin-8-yl)phenoxy)propan-1-amine] | – | –
10 | 100 | 170 | 106 | 67 | 94 | – | – | CN(C)C1CCN(c2ccc(-c3ccc4ncc5nnc(C6CCOCC6)n5c4c3)cc2Cl)CC1 [Example 45, 1-(2-chloro-4-(1-(tetrahydro-2H-pyran-4-yl)-[1,2,4]triazolo[4,3-a]quinoxalin-8-yl)phenyl)-N,N-dimethylpiperidin-4-amine] | – | –
11 | 80 | > 10000 | > 100000 | – | – | – | – | Cc1cc(N2CCC(N(C)C)CC2)ccc1-c1ccc2ncc3nnc(C4CCOCC4)n3c2c1 [Example 50, N,N-dimethyl-1-(3-methyl-4-(1-(tetrahydro-2H-pyran-4-yl)-[1,2,4]triazolo[4,3-a]quinoxalin-8-yl)phenyl)piperidin-4-amine] | – | –
12 | 98 | > 10000 | 523 | – | – | – | – | CN(C)C1CCN(c2ccc(-c3ccc4ncc5nnc(C6CCOCC6)n5c4c3)nc2)CC1 [Example 52, N,N-dimethyl-1-(6-(1-(tetrahydro-2H-pyran-4-yl)-[1,2,4]triazolo[4,3-a]quinoxalin-8-yl)pyridin-3-yl)piperidin-4-amine] | – | –
13 | 100 | 11.8 | 15 | 98 | 100 | 60 | > 50 | C[C@@H]1CN(c2nnc3cnc4ccc(-c5ccc(OCCCN(C)C)c(C(F)(F)F)c5)cc4n23)C[C@H](C)N1C [Example 57, N,N-dimethyl-3-(2-(trifluoromethyl)-4-(1-((3S,5R)-3,4,5-trimethylpiperazin-1-yl)-[1,2,4]triazolo[4,3-a]quinoxalin-8-yl)phenoxy)propan-1-amine] | comparable to AZD0156 | comparable to AZD0156
14 | 100 | 47.5 | 68.8 | 89 | 100 | 38 | – | C[C@@H]1CN(c2nnc3cnc4ccc(-c5ccc(N6CCC(N(C)C)CC6)cc5)cc4n23)C[C@H](C)N1C [Example 58, N,N-dimethyl-1-(4-(1-((3S,5R)-3,4,5-trimethylpiperazin-1-yl)-[1,2,4]triazolo[4,3-a]quinoxalin-8-yl)phenyl)piperidin-4-amine] | – | –
15 | 98 | > 10000 | > 10000 | – | – | – | – | CN(C)C1CCN(c2ccc(-c3ccc4ncc5nnc(N6CCC(N(C)C)CC6)n5c4c3)cc2)CC1 [Example 64, 1-(4-(1-(4-(dimethylamino)piperidin-1-yl)-[1,2,4]triazolo[4,3-a]quinoxalin-8-yl)phenyl)-N,N-dimethylpiperidin-4-amine] | – | –
16 | 100 | 589 | 430 | – | – | – | – | CNC1CCN(c2ccc(-c3ccc4ncc5nnc(CN6CCOCC6)n5c4c3)cc2)CC1 [Example 66, N-methyl-1-(4-(1-(morpholinomethyl)-[1,2,4]triazolo[4,3-a]quinoxalin-8-yl)phenyl)piperidin-4-amine] | – | –
17 | 19 | > 100000 | > 100000 | – | – | – | – | c1ccc(-c2cc3c(cn2)ncc2nnc(C4CCOCC4)n23)cc1 [Example 67, 8-phenyl-1-(tetrahydro-2H-pyran-4-yl)pyrido[3,4-e][1,2,4]triazolo[4,3-a]pyrazine] | – | –
18 | 0 | > 100000 | > 100000 | – | – | – | – | CN(C)Cc1ccc(-c2cc3c(cn2)ncc2nnc(C4CCOCC4)n23)cc1 [Example 68, N,N-dimethyl-1-(4-(1-(tetrahydro-2H-pyran-4-yl)pyrido[3,4-e][1,2,4]triazolo[4,3-a]pyrazin-8-yl)phenyl)methanamine] | – | –
